In US20200017496A1 (priority 2017, published 2020):
Read-outs that look alike come from different tables or passages of the source.

Test system: Klebsiella pneumoniae (KPN) isolates
Test: MIC of compounds alone and combined with antibacterials, broth microdilution (CLSI)
Format: cell-based
Conditions: Klebsiella pneumoniae, read-out: MIC
Procedure, shortened: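 Inoculum 5·10^5 CFU/mL (final), log phase, ca-MHB; 16-20 h, 35° C, ambient air. MIC = lowest conc. with no visible growth; ATB MIC read at each compound level.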

C=CC1=C(C(=O)O)N2C(=O)[C@@H](NC(=O)/C(=N\OCC(=O)O)c3csc(N)n3)[C@H]2SC1 [FIX, Cefixime]
MIC (strain KPN 190270 (TEM-1, SHV-76, CTX-M-15, OXA-1), CLA @ 4 μg/ml+ ATB): 1 µg/mL | MIC (strain KPN 190425 (TEM-1, SHV-1, CTX-M-15, OXA-1), ATB alone): > 128 µg/mL | MIC (strain KPN 190425 (TEM-1, SHV-1, CTX-M-15, OXA-1), CLA @ 4 μg/ml+ ATB): ≤ 0.25 µg/mL | MIC (strain KPN 190551 (TEM-1, SHV-1, CTX-M-15, OXA-1), ATB alone): > 128 µg/mL | MIC (strain KPN 190551 (TEM-1, SHV-1, CTX-M-15, OXA-1), CLA @ 4 μg/ml+ ATB): ≤ 0.25 µg/mL | MIC (strain KPN 200047 (TEM-1, SHV-32, CTX-M-15, OXA-1), ATB alone): > 128 µg/mL | MIC (strain KPN 200047 (TEM-1, SHV-32, CTX-M-15, OXA-1), CLA @ 4 μg/ml+ ATB): ≤ 0.25 µg/mL | MIC (strain KPN 200327 (TEM-1, SHV-1, CTX-M-15, OXA-1), ATB alone): 64 µg/mL | MIC (strain KPN 200327 (TEM-1, SHV-1, CTX-M-15, OXA-1), CLA @ 4 μg/ml+ ATB): ≤ 0.25 µg/mL | MIC (strain KPN 260251 (TEM-1, SHV-11, SHV-12, CTX-M-15, KPC-2), ATB alone): > 128 µg/mL | MIC (strain KPN 260251 (TEM-1, SHV-11, SHV-12, CTX-M-15, KPC-2), CLA @ 4 μg/ml+ ATB): 32 µg/mL | MIC (strain KPN 260252 (TEM-1, SHV-11, KPC-3), ATB alone): > 128 µg/mL | MIC (strain KPN 260252 (TEM-1, SHV-11, KPC-3), CLA @ 4 μg/ml+ ATB): 128 µg/mL | MIC (strain KPN 260376 (SHV-1, SHV-49, OXA-1), ATB alone): > 128 µg/mL | MIC (strain KPN 260376 (SHV-1, SHV-49, OXA-1), CLA @ 4 μg/ml+ ATB): ≤ 0.25 µg/mL | MIC (strain KPN 270077 (TEM-1, SHV-1, CTX-M-15), ATB alone): > 128 µg/mL | MIC (strain KPN 270077 (TEM-1, SHV-1, CTX-M-15), CLA @ 4 μg/ml+ ATB): 0.5 µg/mL | MIC (strain KPN 700603 (SHV-18, OXA-2), ATB alone): 16 µg/mL | MIC (strain KPN 700603 (SHV-18, OXA-2), CLA @ 4 μg/ml+ ATB): 0.5 µg/mL | MIC (strain KPN ARA (TEM-1, SHV-11, CTX-M-15, OXA-1, OXA-48), ATB alone): > 128 µg/mL | MIC (strain KPN ARA (TEM-1, SHV-11, CTX-M-15, OXA-1, OXA-48), CLA @ 4 μg/ml+ ATB): 128 µg/mL | MIC (strain KPN LIB (SHV-11, OXA-48), ATB alone): ≤ 0.25 µg/mL | MIC (strain KPN LIB (SHV-11, OXA-48), CLA @ 4 μg/ml+ ATB): ≤ 0.25 µg/mL | MIC (strain KPN UFR22_O (TEM-1, SHV-1, OXA-48), ATB alone): ≤ 0.25 µg/mL | MIC (strain KPN UFR22_O (TEM-1, SHV-1, OXA-48), CLA @ 4 μg/ml+ ATB): ≤ 0.25 µg/mL | MIC (strain KPN UFR23 (TEM-1, SHV-1, OXA-48), ATB alone): ≤ 0.25 µg/mL | MIC (strain KPN UFR23 (TEM-1, SHV-1, OXA-48), CLA @ 4 μg/ml+ ATB): ≤ 0.25 µg/mL | MIC (strain KPN UFR24 (TEM-1, SHV-2, SHV-11, OXA-1, OXA-48, OXA-47), ATB alone): > 128 µg/mL | MIC (strain KPN UFR24 (TEM-1, SHV-2, SHV-11, OXA-1, OXA-48, OXA-47), CLA @ 4 μg/ml+ ATB): 64 µg/mL | MIC (strain KPN UFR25 (TEM-1, SHV-11, CTX-M-15, OXA-162), ATB alone): > 128 µg/mL | MIC (strain KPN UFR25 (TEM-1, SHV-11, CTX-M-15, OXA-162), CLA @ 4 μg/ml+ ATB): 64 µg/mL | MIC (strain KPN UFR27 (TEM-1, SHV-28, CTX-M-15, OXA-204), ATB alone): > 128 µg/mL | MIC (strain KPN UFR27 (TEM-1, SHV-28, CTX-M-15, OXA-204), CLA @ 4 μg/ml+ ATB): > 128 µg/mL | MIC (strain KPN UFR28 (TEM-1, SHV-1, CTX-M-15, OXA-1, OXA-232), ATB alone): 256 µg/mL | MIC (strain KPN UFR28 (TEM-1, SHV-1, CTX-M-15, OXA-1, OXA-232), CLA @ 4 μg/ml+ ATB): 64 µg/mL | MIC (strain KPN UFR65 (TEM-1, SHV-11, KPC-2), ATB alone): > 128 µg/mL | MIC (strain KPN UFR65 (TEM-1, SHV-11, KPC-2), CLA @ 4 μg/ml+ ATB): 128 µg/mL | MIC (strain KPN UFR66 (TEM-1, SHV-11, CTX-M-15, KPC-2), ATB alone): 512 µg/mL | MIC (strain KPN UFR66 (TEM-1, SHV-11, CTX-M-15, KPC-2), CLA @ 4 μg/ml+ ATB): 64 µg/mL | MIC (strain KPN UFR67 (TEM-1, SHV-11, KPC-3), ATB alone): > 128 µg/mL | MIC (strain KPN UFR67 (TEM-1, SHV-11, KPC-3), CLA @ 4 μg/ml+ ATB): 128 µg/mL | MIC (strain KPN UFR68 (TEM-1, SHV-11, CTX-M-15, KPC-3), ATB alone): > 128 µg/mL | MIC (strain KPN UFR68 (TEM-1, SHV-11, CTX-M-15, KPC-3), CLA @ 4 μg/ml+ ATB): 64 µg/mL | MIC (strain KPN UFR76 (TEM-155, SHV-11, ACT-1, OXA-2), ATB alone): > 128 µg/mL | MIC (strain KPN UFR76 (TEM-155, SHV-11, ACT-1, OXA-2), CLA @ 4 μg/ml+ ATB): > 128 µg/mL | MIC (strain KPN UFR77 (CMY-2), ATB alone): 128 µg/mL | MIC (strain KPN UFR77 (CMY-2), CLA @ 4 μg/ml+ ATB): 128 µg/mL | MIC (strain KPN UFR78 (TEM-1, SHV-1, CTX-M-15, CMY-2, OXA-1, OXA-48), ATB alone): > 128 µg/mL | MIC (strain KPN UFR78 (TEM-1, SHV-1, CTX-M-15, CMY-2, OXA-1, OXA-48), CLA @ 4 μg/ml+ ATB): > 128 µg/mL | MIC (strain KPN UFR79 (DHA-1, OXA-1), ATB alone): > 128 µg/mL | MIC (strain KPN UFR79 (DHA-1, OXA-1), CLA @ 4 μg/ml+ ATB): > 128 µg/mL | MIC (strain KPN UFR80 (SHV-11, DHA-1, OXA-1), ATB alone): ≤ 0.25 µg/mL | MIC (strain KPN UFR80 (SHV-11, DHA-1, OXA-1), CLA @ 4 μg/ml+ ATB): 0.5 µg/mL | MIC (strain KPN UFR81 (TEM-1, SHV-1, DHA-1, OXA-48), ATB alone): > 128 µg/mL
